In patent publication US6531477B1, “6-substituted pyrazolo [3,4-d] pyrimidin-4-ones useful as cyclin dependent kinase inhibitors” (DuPont Pharmaceuticals Company, priority 1998, dated 2003):

SMILES	melting point
CC(C)c1[nH]n(-c2c(Cl)cc(Cl)cc2Cl)c2nc(Cc3ccc(N(C(=O)OC(C)(C)C)C(=O)[C@@H]4CCCN4)cc3)nc(=O)c1-2 [Example 113, (S)-1-(2,4,6-Trichlorophenyl)-3-isopropyl-6-(4-(N-t-butoxycarbonylprolinamido)benzyl)pyrazolo[3,4-d]pyrimidin-4-one]	225 to 226 °C
CC(C)c1[nH]n(-c2c(Cl)cccc2Cl)c2nc(Cc3ccc(CC(=O)NCCN(C)C)cc3)nc(=O)c1-2 [Example 124, 1-(2,6-Dichlorophenyl)-3-isopropyl-6-(4-(2-(N,N-dimethylamino)ethylaminocarbonylmethyl)benzyl)pyrazolo[3,4-d]pyrimidin-4-one]	170 to 172 °C
CSc1[nH]n(-c2c(Cl)cc(Cl)cc2Cl)c2nc(Cc3cccc(O)c3)nc(=O)c1-2 [Example 2, 1-(2,4,6-Trichlorophenyl)-3-(methylthio)-6-(3-hydroxybenzyl)pyrazolo[3,4-d]pyrimidin-4-one]	264 to 266 °C
COc1ccc(Cc2nc3c(c(SC)nn3-c3c(Cl)cc(Cl)cc3Cl)c(=O)[nH]2)cc1 [Example 8]	263 to 267 °C
CCc1nn(-c2ccccc2Br)c2nc(Cc3cccc(OC)c3)[nH]c(=O)c12 [Example 151]	178 to 180 °C
CCc1nn(-c2c(Cl)cc(Cl)cc2Cl)c2nc(Cc3cccc(CC(=O)O)c3)[nH]c(=O)c12 [Example 47]	192 to 194 °C
CC(C)c1nn(-c2c(Cl)cc(Cl)cc2Cl)c2nc(Cc3ccccn3)[nH]c(=O)c12 [Example 60]	214 to 215 °C
Cc1ccccc1Cc1nc2c(c(C(C)C)nn2-c2c(Cl)cc(Cl)cc2Cl)c(=O)[nH]1 [Example 63]	194 to 195 °C

The next lines start with the values.

melting point	SMILES
245 to 246 °C	CCc1nn(-c2c(C)cc(Cl)cc2Cl)c2nc(Cc3ccc(OC)cc3)[nH]c(=O)c12 [Example 187]
252 to 253 °C	CCc1nn(-c2c(Cl)cc(Br)cc2Cl)c2nc(Cc3ccc(OC)cc3)[nH]c(=O)c12 [Example 175]
186 to 187 °C	CCc1nn(-c2c(Cl)cccc2Cl)c2nc(Cc3cccc(OC)c3)[nH]c(=O)c12 [Example 177]
278 to 280 °C	CCc1nn(-c2c(Cl)cc(C(=O)NC)cc2Cl)c2nc(Cc3ccc(OC)cc3)[nH]c(=O)c12 [Example 201]
227 to 229 °C	COc1cccc(Cc2nc3c(c(CO)nn3-c3c(Cl)cc(Cl)cc3Cl)c(=O)[nH]2)c1 [Example 208]
226 to 228 °C	CCNC(=O)c1cc(Cl)c(-n2nc(CC)c3c(=O)[nH]c(Cc4cccc(OC)c4)nc32)c(Cl)c1 [Example 236]
284 to 286 °C	CCc1nn(-c2c(Cl)cc(Br)cc2Cl)c2nc(Cc3ccc(O)cc3)[nH]c(=O)c12 [Example 169]
277 to 279 °C	CSc1nn(-c2c(C)cc(Cl)cc2Cl)c2nc(Cc3ccc(O)cc3)[nH]c(=O)c12 [Example 188]
205 to 206 °C	Cc1cccc(Cl)c1-n1nc(C(C)C)c2c(=O)[nH]c(Cc3ccc(N)cc3)nc21 [Example 199]
267 to 268 °C	CSc1nn(-c2c(F)cccc2Cl)c2nc(Cc3ccc(O)cc3)[nH]c(=O)c12 [Example 178]
308 to 310 °C	CCc1nn(-c2c(Cl)cc(C(=O)O)cc2Cl)c2nc(Cc3ccc(O)cc3)[nH]c(=O)c12 [Example 196]
